Compound	melting point
Nc1nc2ccccc2n1C1CCCCC1	206 to 208 °C
Cc1ccsc1C1CC1C(=O)O (stereo unspecified)	58 to 60 °C
CC(=O)NS(=O)(=O)Cl	92 to 94 °C
Cc1nccn1-c1ccc(N)cn1	160 to 162 °C
NC(=S)NCc1ccccc1	163 to 165 °C
Cc1ccc(S(=O)(=O)OC2CCCC2c2ccccc2)cc1 (stereo unspecified)	65 to 67 °C
CS(=O)(=O)c1ccccc1F	49 to 53 °C
Cc1noc2nc(-c3cc(F)ccc3F)cc(C(=O)O)c12	237 to 239 °C
CNC(=O)NCCC(=O)O	129 to 131 °C
Cc1ccc2cccc(S(=O)(=O)Cl)c2n1	113 to 115 °C
O=C(O)c1cn(CC(=O)N2CCCC2)nn1	208 to 210 °C
COc1ccc(NS(=O)(=O)c2cc(N)ccc2OC)cc1	133 to 135 °C
CC(O)c1nc2ccccc2s1 (stereo unspecified)	61 to 63 °C
N#CC(Cl)c1c(F)cccc1Cl (stereo unspecified)	49 to 51 °C
CN(CC(=O)O)S(=O)(=O)C=Cc1ccccc1	150 to 152 °C
O=C(CSc1nnc(NCc2ccccc2)s1)NCC1CCCCC1	134 to 136 °C
CN(C)CCN=C=S	35 to 37 °C
O=C(O)CCCCCNC1=NS(=O)(=O)c2ccccc21	189 to 191 °C
CC(C)(C)OC(=O)N(CC(=O)O)C1CC1	90 to 92 °C
O=S(=O)(Cl)c1ccc2ncccc2c1	87 to 89 °C

Compound	melting point
CC(C)c1nnc(CC#N)[nH]1	148 to 150 °C
OCc1ccc2c(c1)CCC2	69 to 71 °C
OCC1CN(Cc2ccccc2)CC1CO (stereo unspecified)	94 to 96 °C
O=C(O)c1cnc(NC2CC2)s1	217 to 219 °C
CN(C)c1cc(C(F)(F)F)nc(Cl)n1	106 to 108 °C
O=C1CC=NN1c1ccc(F)cc1	121 to 123 °C
CCCOc1ccc(-c2nc(C(=O)O)cs2)cc1	183 to 185 °C
O=C(O)c1ccc(F)c(COCc2ccccc2)c1	95 to 97 °C
CNC(=O)c1cc2ccccc2[nH]1	221 to 223 °C
Nc1nc(CN2CCN(c3nccs3)CC2)cs1	169 to 171 °C
CC(N)=NS(=O)(=O)c1cc(Br)ccc1Br	182 to 184 °C
O=C(O)CCNC(=O)c1c[nH]c2ccccc12	157 to 159 °C
ClCc1ncc(-c2ccc(Br)cc2)o1	80 to 82 °C
CCc1nc(-c2ccc(C(=O)O)cc2)n[nH]1	229 to 231 °C
N#Cc1cnn(-c2cccc(Cl)c2)c1	139 to 141 °C
O=C(CSc1ccccc1C(=O)O)NC1CCCCCCC1	168 to 170 °C
O=C(O)Cc1csc(-c2ccsc2)n1	110 to 112 °C
CC(=O)N1CCC(N)CC1	19 to 21 °C
COc1ccc(-c2cc(C(=O)NN)c3ccccc3n2)cc1OC	181 to 183 °C
Cc1cccc2c(CCN)c[nH]c12	125 to 127 °C

Compound	melting point
O=CC(Br)C=Nc1nccs1 (stereo unspecified)	137 to 139 °C
CCNC(=O)c1cc(Cl)ccn1	60 to 62 °C
O=C(O)C1CCN(CC(F)(F)F)CC1	62 to 64 °C
Nc1cc(C2CCNCC2)n[nH]1	151 to 153 °C
O=C(Cc1ccccn1)c1ccc(Br)cc1	126 to 128 °C
Cn1c(-c2ccccc2)c(Br)c2ccccc21	59 to 61 °C
O=C(O)/C=C/c1cnn(Cc2ccccc2)c1	118 to 120 °C
Cc1c(N)cccc1C#N	90 to 92 °C
CC(C)NS(=O)(=O)C1CCNC1 (stereo unspecified)	104 to 106 °C
O=C(Cc1ccccc1)Nc1ccccc1C(=O)O	192 to 194 °C
O=C(O)c1ccc([N+](=O)[O-])s1	143 to 151 °C
CCN1CCCC1CNS(=O)(=O)c1ccc(N)cc1 (stereo unspecified)	101 to 103 °C
C=CCS(N)(=O)=O	31 to 33 °C
Cc1ccc(S(=O)(=O)NC(CCl)c2ccccc2)cc1 (stereo unspecified)	174 to 176 °C
O=c1ccc2ccc(Cl)c(Cl)c2[nH]1	241 to 243 °C
Clc1nc(-c2ccccc2)nc2scc(-c3ccccc3)c12	147 to 149 °C
Cc1c(C)n(CCc2ccccn2)c2[nH]cnc(=N)c12	132 to 134 °C
CCCc1ccc(-c2ccc(N)cc2)cc1	64 to 66 °C

Second part, the compound after the results:

melting point	Compound
156 to 158 °C	CC(C)OC(=S)Nc1ccc(C#N)c(Cl)c1
144 to 148 °C	CCc1ccc(N2CC(C(=O)O)CC2=O)cc1 (stereo unspecified)
68 to 70 °C	CC(C)C(=O)NC(C)c1ccc(S(=O)(=O)Cl)s1 (stereo unspecified)
187 to 189 °C	CC(=O)c1ccc2c(c1)C(C)(C)C(=O)N2
175 to 177 °C	O=C(OCc1ccccc1)N1CCc2n[nH]c(=O)cc2C1
140 to 142 °C	CC(Cl)C(=O)c1c(N)n(C)c(=O)n(C)c1=O (stereo unspecified)
81 to 83 °C	CCOC(=O)c1cc(C)nc2cc(C)nn12
201 to 203 °C	COc1ccc(OC)c2[nH]c(C(=O)O)cc12
203 to 205 °C	O=C(O)c1cnn2cccnc12
183 to 185 °C	O=C1NC(=O)c2cc(F)ccc21
240 to 242 °C	Cn1c(=O)ccn(CC(=O)O)c1=O
225 to 227 °C	CC(C)NS(=O)(=O)c1ccc(C(=O)O)cc1
239 to 241 °C	O=C(Nc1sc2c(c1C(=O)O)CCCC2)c1cccnc1
105 to 107 °C	CC(C)n1cc2cc(N)ccc2n1
62 to 64 °C	CN1CCc2ccc(S(=O)(=O)Cl)cc21
151 to 153 °C	O=C(O)c1ccc(S(=O)(=O)Nc2cccc(Cl)c2F)o1
122 to 124 °C	CCNC(=O)c1cc(Cl)ccc1N
137 to 139 °C	CC1CCC(C(C)C)C(OC(=O)CSc2ccccc2C(=O)O)C1 (stereo unspecified)
149 to 151 °C	NS(=O)(=O)c1ccc(C(=O)CBr)cc1
96 to 98 °C	CCc1ccc2c(c1)C(=O)C(=O)N2C
45 to 47 °C	COC(=O)c1ccc(C)c(S(=O)(=O)Cl)c1
205 to 208 °C	COc1ccccc1C1C(C(=O)O)CCC(=O)N1c1ccc(C)cc1 (stereo unspecified)

melting point	Compound
164 to 166 °C	CS(=O)(=O)Nc1ccc(S(=O)(=O)Cl)cc1F
138 to 140 °C	Cc1c(S(=O)(=O)Cl)sc2cc(F)ccc12
111 to 113 °C	CC(C)NS(=O)(=O)c1ccccc1C(=O)O
149 to 151 °C	Nc1cccc(N2CCNC2=O)c1
258 to 260 °C	Cc1[nH]c(=O)c(C(=O)O)cc1-c1ccccc1
262 to 264 °C	Cn1cc(-c2nc(C(=O)O)cs2)cn1
139 to 141 °C	Cc1scc(C(=O)O)c1C
216 to 218 °C	CS(=O)(=O)c1ccc(C(N)=S)cc1
87 to 89 °C	Cc1cc(C(=O)CCl)c(C)n1-c1ccon1
279 to 281 °C	Cc1nc(-c2cccnc2)[nH]c(=O)c1CCC(=O)O
171 to 173 °C	O=C(O)Cc1ccc(O)cc1Cl
163 to 165 °C	Cc1ccc(NC(=O)C2CC2)cc1N
137 to 139 °C	CC(NC(=O)CNC(=O)CCl)c1ccc(F)cc1 (stereo unspecified)
119 to 121 °C	Cc1nc(-c2ccc(Cl)cc2)sc1C(C)O (stereo unspecified)
149 to 151 °C	Cc1ccc(C)c(N2N=C(C(=O)O)CCC2=O)c1
198 to 200 °C	Cc1cc(C)n(C(C)C(=O)Nc2ccc(N)cc2Cl)n1 (stereo unspecified)
98 to 100 °C	Cc1ccc(N2N=C(C(=O)O)NCC2=O)cc1
139 to 141 °C	CCOc1ccc(S(=O)(=O)NCC(=O)O)cc1
149 to 151 °C	CC(C)n1nccc1C(=O)O
135 to 137 °C	CCOC(=O)Cc1c(C)nc(O)nc1C
159 to 161 °C	Nc1nnc(Cl)c2ccccc12

From a melting point compilation (Tetko et al.)
